The values that follow come from patent US8748486B2, “Inhibitors of yeast filamentous growth and method of their manufacture” (priority 2003, dated 2014).

Series [1] concerns C. albicans. The following applies: cited from earlier work.
Series [2] deals with C. albicans strain CAI4. The series can be described thus: toxic effect on yeast cell growth. In kind it is cell-based, Candida albicans. The conditions noted are these: for toxic effect on yeast cell growth: concentrations up to 1 mM. As for the experimental part:
(§1) A starter culture of C. albicans strain CAI4 was prepared by growing the fungus at a low temperature (28° C.) in GS medium to maintain the yeast cell morphology. […] The synthetic DSF was indistinguishable with the natural DSF in inhibition of germ tube formation.

For series [3], the system named is C. albicans strain CAI4 (ATCC MYA-684). The series can be described thus: in vitro bioassay of inhibitory activity against C. albicans yeast-to-mycelium transition. The conditions noted are these: comparison within cis/trans pair, FIG. 2. The format is cell-based, Candida albicans. As for the experimental part:
An in vitro bioassay of the inhibitory activity of the fatty acids of FIG. 2 against C. albicans yeast-to-mycelium transition was carried out.
C. albicans strain CAI4 (ATCC MYA-684) was incubated at 28° C. for 24 h with shaking in a glucose salts (GS) medium (5 g of glucose, 0.26 g of Na2HPO4.12H2O, 0.66 g of KH2PO4, 0.88 g of MgSO4.7H2O, 0.33 g of NH4Cl, 16 μg of biotin per liter) supplemented with 0.1 mg/ml of uridine.
All the C. albicans cells remained, in the yeast form under these conditions. The yeast cells were washed three times with GS medium before use and then were dispersed in GS medium to give a solution with a final OD600 of 1.0.
The test compounds set out in FIG. 2 were diluted to the indicated concentrations with GS medium and were added to 100 μl of the washed C. albicans culture in 96-well microtitre plates, mixed and incubated at 37° C. for 6 hours (h).
The percentages of yeast cells and germ tubes (filamentous form) were determined microscopically by counting about 300 cells from three replicates. Inhibitory activity was defined as the mole concentration that gave a minimum of 90% inhibition (IC90) relative to control.

For series [4], the system named is C. albicans strain CAI4. The series can be described thus: yeast-to-mycelium conversion of a C. albicans culture at 37° C. with or without DSF. In kind it is cell-based, Candida albicans. As for the experimental part: as §1

Regarding `C=C(C)C1CC=C(C)C(=O)C1` (stereo not shown) [Carvone], the “formation of filamentous structures of C. albicans” value in series [1] is listed as “interfere with the formation of filamentous structures”. As for `CC(C)CCCCCCC/C=C\C(=O)O` [Compound 1, cis-11-methyl-2-dodecenoic acid], the “effect on yeast growth” value in series [2] (FIGS. 3a and 3b) is “does not affect yeast growth”. In addition, the “toxic effect on yeast cell growth” value is “not observed to have a toxic effect” in series [2] and “No toxic effect” in series [2] (listed as DSF). In series [3], the “inhibitory activity of cis- and trans-isomer pairs compared” value is recorded as “identical inhibitory activity”. For the same molecule, the yeast-to-mycelium transition result in series [4] (30 μM, 37° C., within 6 hours, GS medium) is on record as “completely abolished”. For the same molecule, the “yeast-to-mycelium transition of a culture of Candida albicans” value in series [4] (FIGS. 3a and 3b) is “inhibits”. Besides, in series [4] (synthetic versus natural DSF), the “inhibition of germ tube formation compared with the natural DSF” value was “indistinguishable”. Take `CC(C)CCCCCCC/C=C/C(=O)O` [Compound 2, trans-11-methyl-2-dodecenoic acid]: the “inhibitory activity of cis- and trans-isomer pairs compared” value in series [3] is recorded as “identical inhibitory activity”.

In the case of `CC(C)=CCCC(C)=CCCC(C)=CC(=O)O` [Compound 3, 3,7,11-trimethyl-2,6,10-dodecatrienoic acid], the “C. albicans germ tube (mycelium) formation” value in series [1] is on record as “inhibits”. Take `CCCCCCCCC/C=C\C(=O)O` [Compound 7, cis-2-dodecenoic acid]: the “inhibitory activity of cis- and trans-isomer pairs compared” value in series [3] was “very similar or identical inhibitory activity”. With `CC(C)=CCCC(C)=CCCC(C)=CCO` [Farnesol], the “mycelial development of C. albicans” value in series [1] (growth morphology assay and differentiation assay, activators L-proline, N-acetylglucosamine, serum) was “prevent mycelial development”. As to `C=C(C)C1CC=C(C=O)CC1` (stereo not shown) [perillaldehyde], the “formation of filamentous structures of C. albicans” value in series [1] is “interfere with the formation of filamentous structures”.
